Data on 1 compound can be found in PMC10852989, “Combining cisplatin and a STING agonist into one molecule for metalloimmunotherapy of cancer” (National Science Review, 2024).

Molecules are shown by their SMILES.

A short description of data set [1]: reduction by ascorbic acid (AsA) followed by 1H-/195Pt-NMR. The format is physicochemical. Particulars: 20 mM, 8 equiv. AsA, 5:1 d6-DMSO:D2O, 37 °C, dark. Here is the method: Reduction of I and II. Samples were prepared by reacting I or II (20 mM) with 8 equiv. AsA in 5:1 d6-DMSO:D2O solutions. The time course of the reaction was monitored by ^1H-NMR and ^195Pt-NMR after incubation of the samples were incubated at 37 °C for 0, 3, 6, 12, 24, 36, 48, 60, 72, 84, 96, or 120 h in the dark.

Data set [2] deals with HK-2 cells. Briefly: 72 h MTT cytotoxicity, HK-2. In kind it is cell-based. To be noted: human normal kidney cell line. Here is the method:
(§1) Cytotoxicity. Tumor cells were cultured overnight after inoculation in RPMI-1640 medium or DMEM supplemented with 10% FBS. All cultures were maintained in an incubator in a highly humidified atmosphere of 95% air with 5% CO2 at 37 °C. Growth inhibition was measured with an MTT assay. Briefly, 2800–7000 cells per well in culture medium (100 μL) were plated in 96-well plates (Corning). The cells were treated in triplicate with different concentrations of complexes at 37 ℃ for 72 h. Stock solutions of CDDP and oxoplatin were prepared in PBS, while stock solutions of conjugates I and II and the ligand MSA-2 were prepared in DMSO. The stock solutions were diluted in complete medium (DMSO < 0.5%). An aliquot of MTT solution (40 μL, 2.5 mg·mL^–1) in PBS buffer was added to each well and incubated for 4 h. The supernatant was removed and DMSO (150 μL) was added to solubilize the formazan crystals. The amount of formazan was determined using a microplate reader at 570 nm after the plates were shaken for 30 min. The optical density (OD) was used to calculate the percentage of viable cells relative to untreated control values. Background readings for MTT incubated in cell-free medium were subtracted from each value before calculation. […] The mean IC50 values were calculated using data from three replicates.

Data set [3] relates to BxPC3 cells. Briefly: 72 h MTT cytotoxicity, BxPC3. In kind it is cell-based, human. Here is the method: as §1
The subject of data set [4] is Pan02 cells. Briefly: 72 h MTT cytotoxicity, Pan02. In kind it is cell-based, mouse. The protocol:
as §1

For data set [5], the system named is cancer cell lines (MCF-7, Caov3, PANC-1, BxPC3, Pan02). Briefly: 72 h MTT cytotoxicity, panel of cancer cell lines. The format is cell-based. Here is the method: as §1
In data set [6] the test system is BMDCs cultured with Pan02 cell CM. Description: IFN-β ELISA of BMDCs incubated with conditioned medium of drug-treated Pan02 cells. In kind it is cell-based, mouse. Here is the method: ELISA. Bone marrow-derived dendritic cells (BMDCs) were prepared according to the following method. Briefly, femurs and tibias were removed from 4-6 week-old C57BL/6 mice, and the bone marrow cells were isolated. The bone marrow cells were incubated in T cell medium [RPMI-1640 medium (with GlutaMAX), supplemented with 10% FBS, 1% HEPES, 1% NEAA, 1% sodium pyruvate, and 0.1% βME] containing 20 ng/mL GM-CSF for 6 days after erythrocyte lysis, during which time half of the medium was replaced with fresh T cell medium once and the cytokines were supplemented. Then, the BMDCs were harvested on day 7 for further study.
Pan02 tumor cells were treated with various drugs at a concentration of 5 μM for 48 h, and then the drug-pretreated tumor cell supernatant was obtained by centrifugation at a speed of 12000 rpm/min for 5 min and used as conditioned media (CM) subsequently.
BMDCs were cultured with 50% CM plus 50% fresh medium for 18 h. In addition, BMDCs were cultured with fresh medium containing different complexes or mixtures (15 μM CDDP and I, a mixture of I and 8 equiv. AsA, and equal AsA). Then, all the BMDC supernatant was collected and centrifuged for subsequent cytokine analysis using ELISA kits, which were performed according to the manufacturer’s instructions.

Data set [7] has as its system Pan02 cells. Briefly: Pan02 cell viability with cell death inhibitors / at matched Pt uptake. The format is cell-based. To be noted: Pan02, I 0.2 μM; necrostatin-1 50 μM, ferrostatin 50 μM. Here is the method: For Pan02 cells, the cell viability in the presence of different cell death inhibitors was also determined. Therefore, Pan02 cells were respectively pre-incubated with z-VAD-fmk (50 μM), 3-Methyladenine (100 μM), ferrostatin (50 μM), necrostatin-1 (50 μM) 1 h, and then co-incubated I (0.2 μM) for 72 h. The cell viability was then determined.
Fig. S17. (A) The chemical structure of Pt-E-I. (B) Cellular uptake of Pt (ng Pt/mg protein) in Pan02 cells after exposure to Pt-E-I (5 μM) for 6 h. NH4Cl: cells preincubated with 50 mM NH4Cl; MI: cells preincubated with 50 mM 2-deoxy-D-glucose and 5 μΜ oligomycin. (C) Cellular uptake of Pt (ng Pt/mg protein) in Pan02 cells after exposure to I and Pt-E-I (1, 2, 5, 10, 20 μM) for 6 h. (D) The cell viability of Pan02 treated with I (5 μM) and Pt-E-I (20 μM). (E) Hierarchical clustering of differentially expressed genes between I-treated (5 μM) Pan02 cells, Pt-E-I-treated (20 μM) and nontreated cells.

Data set [8] concerns Pan02 tumors. Briefly: in vivo antitumor activity, C57BL/6 mice bearing Pan02 tumors. On the set-up: species or system mouse. Here is the method: In vivo antitumor activity. Female C57BL/6 mice (6–8 weeks old) were subcutaneously implanted with pan02 cells (2 × 10^6) in the right flank. Once the tumor volume reached approximately 60 mm^3, the mice were assigned to 4 groups at random (n = 5–8) and received treatment with PBS, CDDP (10.0 μmol/kg), I (10.0 μmol/kg), or a mixture of CDDP (10.0 μmol/kg) and MSA-2 (10.0 μmol/kg). The mice received 9 treatments. Changes in body weight and tumor volume were recorded. All the experimental procedures utilizing mice were performed in accordance with the Guidelines for Care and Use of Laboratory Animals of Nanjing University and experiments were approved by the Institutional Animal Care and Use Committee of Nanjing University (IACUC-2101001, SL-019-00).

In data set [9] the test system is Pan02 tumors. Briefly: scRNA-seq of Pan02 tumors. In kind it is in vivo, mouse. Particulars: scRNA-seq at treatment endpoint, versus untreated. The text has this: ScRNA-seq. Tumors were excised from individual mice after treatment using a dissecting microscope and pooled. The tumors were cryopreserved in FBS + 10% DMSO. Samples were subsequently thawed, washed, sorted to isolate living cells and then performed on the 10X Genomics 5’ Chromium v2.0 platform according to the manufacturer’s instructions. Libraries were generated per the manufacturer’s protocol and sequenced on an Illumina HiSeq 2500 with the “rapid run” mode according to the standard 10X Genomics protocol. Data analysis was conducted by Singleron Biotech. Co. Ltd. using Cellranger and R.
Cell type annotation. The cell type identity of each cluster was determined from the expression of canonical markers found in the DEGs using SynEcoSys database. Heatmaps displaying the expression of markers used to identify each cell type were generated by Seurat v3.12 DoHeatmap.

By IC50 is commonly meant the concentration that inhibits the measured activity by half. Higher therefore signals weaker potency. Take `COc1cc2cc(C(=O)CCC(=O)[O][Pt]([NH2])([NH2])([OH])([Cl])[Cl])sc2cc1OC` [conjugate I]: the “time at which reduction by AsA finished” value in data set [1] worked out at 24 h. In addition, the IC50 in data set [2] amounted to 120 ± 10 nM; in data set [3] it was 20 ± 10 nM; in data set [4], 50 ± 10 nM. For the same compound, the “IC50 in these cancer cell lines” value in [5] is reported as “submicromolar”. Also, the “IFN-β secretion by BMDCs pretreated with MyD88 inhibitor, treated Pan02 cell CM” value in data set [6] (MyD88 inhibitor TJ-M2010-5) is given as “significant decrease”. For the same compound, the “IFN-β secretion by BMDCs incubated with treated Pan02 cell CM” value in [6] (Pan02 treated 48 h at 5 μM (Pt-E-I 20 μM), BMDCs 50% CM, 18 h) is on record as “markedly increased”. The “cell killing on co-incubation with necroptosis and ferroptosis inhibitors” value in data set [7] was “significant reversal of cell killing”. In addition, the tumor volume in data set [8] (C57BL/6 mice, Pan02 tumors, 10.0 μmol/kg every 2 days for 16 days, intravenous) came out at 106.3 ± 6.2 mm^3. Moreover, the “tumor growth after cessation of treatment” value in data set [8] (monitored another 6 days) is recorded as “substantially suppressed”. Besides, the “frequencies of CD8 effector T, CD4 T and NK cells” value in data set [9] is recorded as “increased”. Also, in data set [9], the “percentage of tumor cells” value is reported as “decreased”.
